Data taken from ChEMBL document CHEMBL1909046, “DrugMatrix in vitro pharmacology data”.

Tests used:
[1] = target: Beta-1 adrenergic receptor (Homo sapiens, UniProt P08588); experiment: DRUGMATRIX: Adrenergic beta1 radioligand binding (ligand: [125I] Cyanopindolol); assay type: cell membranes, CHO-K1, Membrane; settings: cho-k1; Not Active = under 50% inhibition at 10 µM
[2] = target: T1, Calcitonin receptor (Homo sapiens, UniProt P30988); assay type: cell membranes, Membrane; settings: t47d; further: in other assays of this panel Not Active means under 50% inhibition at 10 µM
T1 sequence (P30988 whole entry): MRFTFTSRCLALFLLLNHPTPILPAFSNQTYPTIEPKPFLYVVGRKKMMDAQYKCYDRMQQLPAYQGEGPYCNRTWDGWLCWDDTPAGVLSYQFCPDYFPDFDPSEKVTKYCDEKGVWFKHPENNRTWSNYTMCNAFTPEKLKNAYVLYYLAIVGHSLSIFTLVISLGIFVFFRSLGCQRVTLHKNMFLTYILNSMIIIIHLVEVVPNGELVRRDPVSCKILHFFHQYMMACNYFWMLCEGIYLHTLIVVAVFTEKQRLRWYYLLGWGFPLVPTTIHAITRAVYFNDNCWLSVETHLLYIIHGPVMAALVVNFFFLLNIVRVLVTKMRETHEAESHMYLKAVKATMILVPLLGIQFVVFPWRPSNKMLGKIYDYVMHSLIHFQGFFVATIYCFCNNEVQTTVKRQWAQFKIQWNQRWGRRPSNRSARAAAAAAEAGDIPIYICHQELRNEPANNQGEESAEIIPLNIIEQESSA

[3] = target: T2, 5-hydroxytryptamine receptor 2C (Homo sapiens, UniProt P28335); experiment: DRUGMATRIX: Serotonin (5-Hydroxytryptamine) 5-HT2C radioligand binding (ligand: [3H] Mesulergine); assay type: cell membranes, CHO-K1, Membrane; settings: cho-k1; Not Active = under 50% inhibition at 10 µM
T2 sequence (P28335 whole entry): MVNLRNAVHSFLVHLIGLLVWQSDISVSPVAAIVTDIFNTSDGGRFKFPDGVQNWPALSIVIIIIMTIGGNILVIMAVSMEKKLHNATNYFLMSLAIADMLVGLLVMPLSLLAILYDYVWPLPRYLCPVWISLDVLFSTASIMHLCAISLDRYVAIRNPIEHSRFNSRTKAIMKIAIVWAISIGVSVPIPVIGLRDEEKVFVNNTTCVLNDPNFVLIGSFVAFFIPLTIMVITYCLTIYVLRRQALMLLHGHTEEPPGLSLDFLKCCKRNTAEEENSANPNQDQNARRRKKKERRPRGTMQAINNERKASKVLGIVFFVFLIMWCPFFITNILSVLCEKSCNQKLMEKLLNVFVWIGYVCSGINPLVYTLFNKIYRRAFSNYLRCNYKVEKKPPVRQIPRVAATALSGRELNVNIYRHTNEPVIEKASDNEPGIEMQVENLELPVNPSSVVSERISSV

[4] = target: Histamine H2 receptor (Homo sapiens, UniProt P25021); assay type: cell membranes, CHO-K1, Membrane; settings: cho-k1; further: in other assays of this panel Not Active means under 50% inhibition at 10 µM
Chain of Histamine H2 receptor (P25021 whole entry): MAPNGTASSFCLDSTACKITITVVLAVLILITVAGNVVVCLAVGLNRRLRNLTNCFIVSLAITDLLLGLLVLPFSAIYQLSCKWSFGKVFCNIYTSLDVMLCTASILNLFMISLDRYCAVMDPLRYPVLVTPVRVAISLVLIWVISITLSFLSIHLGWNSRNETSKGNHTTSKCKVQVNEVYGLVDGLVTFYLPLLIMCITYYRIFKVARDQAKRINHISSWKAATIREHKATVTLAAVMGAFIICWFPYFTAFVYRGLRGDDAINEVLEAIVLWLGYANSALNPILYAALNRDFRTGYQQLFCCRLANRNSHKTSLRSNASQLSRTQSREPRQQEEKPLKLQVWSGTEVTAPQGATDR

[5] = target: T3, Leukotriene C4 synthase (Cavia porcellus, UniProt A6XA80); experiment: biochemical; assay type: tissue-based, Lung;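 further: enzyme inhibition assay of leukotriene C4 synthase, using LTA4 as the substrate; in other assays of this panel Not Active means under 50% inhibition at 10 µM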
T3 sequence (A6XA80 whole entry): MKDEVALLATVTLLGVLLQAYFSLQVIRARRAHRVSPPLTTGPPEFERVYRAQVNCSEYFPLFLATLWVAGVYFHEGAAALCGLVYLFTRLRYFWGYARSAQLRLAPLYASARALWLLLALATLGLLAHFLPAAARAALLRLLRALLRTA

[6] = target: Melanocortin receptor 4 (Homo sapiens, UniProt P32245); assay type: cell membranes, Membrane; settings: hek293; further: in other assays of this panel Not Active means under 50% inhibition at 10 µM
Chain of Melanocortin receptor 4 (P32245 whole entry): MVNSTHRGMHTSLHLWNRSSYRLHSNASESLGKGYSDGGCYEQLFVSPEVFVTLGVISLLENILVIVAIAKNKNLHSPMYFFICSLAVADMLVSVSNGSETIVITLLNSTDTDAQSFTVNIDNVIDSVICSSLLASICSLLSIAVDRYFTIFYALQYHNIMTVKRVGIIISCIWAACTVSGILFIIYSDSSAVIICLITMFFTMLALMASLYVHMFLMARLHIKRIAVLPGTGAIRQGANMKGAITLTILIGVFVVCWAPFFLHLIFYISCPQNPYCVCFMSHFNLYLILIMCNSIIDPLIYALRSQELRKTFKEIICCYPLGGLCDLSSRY

[7] = target: T4, Muscarinic acetylcholine receptor M4 (Homo sapiens, UniProt P08173); assay type: cell membranes, CHO-K1, Membrane; settings: cho-k1; further: in other assays of this panel Not Active means under 50% inhibition at 10 µM
T4 sequence (P08173 whole entry): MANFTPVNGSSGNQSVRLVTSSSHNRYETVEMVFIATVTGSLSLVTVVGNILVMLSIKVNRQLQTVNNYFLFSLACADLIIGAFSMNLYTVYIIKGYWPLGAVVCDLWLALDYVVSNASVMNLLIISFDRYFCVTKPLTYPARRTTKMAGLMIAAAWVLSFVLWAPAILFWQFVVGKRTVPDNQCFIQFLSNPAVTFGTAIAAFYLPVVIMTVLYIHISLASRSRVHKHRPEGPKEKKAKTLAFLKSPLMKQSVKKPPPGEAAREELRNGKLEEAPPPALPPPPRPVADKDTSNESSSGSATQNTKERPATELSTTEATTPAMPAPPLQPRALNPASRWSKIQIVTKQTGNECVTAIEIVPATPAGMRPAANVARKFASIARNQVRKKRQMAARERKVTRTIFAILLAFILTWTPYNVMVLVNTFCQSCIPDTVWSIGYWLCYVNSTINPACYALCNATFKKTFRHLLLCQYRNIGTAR

[8] = target: T5, Neuropeptide Y receptor type 1 (Homo sapiens, UniProt P25929); assay type: cell membranes, Membrane; settings: sk-n-mc; further: in other assays of this panel Not Active means under 50% inhibition at 10 µM
T5 sequence (P25929 whole entry): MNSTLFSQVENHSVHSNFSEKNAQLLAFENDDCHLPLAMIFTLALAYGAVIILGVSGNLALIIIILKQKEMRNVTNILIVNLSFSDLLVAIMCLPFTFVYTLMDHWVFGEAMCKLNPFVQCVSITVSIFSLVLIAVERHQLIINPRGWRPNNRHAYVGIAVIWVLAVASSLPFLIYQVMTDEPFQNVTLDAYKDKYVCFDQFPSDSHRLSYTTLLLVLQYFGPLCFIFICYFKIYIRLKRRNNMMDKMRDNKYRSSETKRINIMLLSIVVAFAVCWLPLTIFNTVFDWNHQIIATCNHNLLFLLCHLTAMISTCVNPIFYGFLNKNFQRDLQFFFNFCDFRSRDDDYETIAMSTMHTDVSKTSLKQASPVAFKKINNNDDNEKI

[9] = target: Mu-type opioid receptor (Homo sapiens, UniProt P35372); experiment: DRUGMATRIX: Opiate mu (OP3, MOP) radioligand binding (ligand: [3H] Diprenorphine); assay type: cell membranes, CHO-K1, Membrane; settings: cho-k1; Not Active = under 50% inhibition at 10 µM
Chain of Mu-type opioid receptor (P35372 whole entry): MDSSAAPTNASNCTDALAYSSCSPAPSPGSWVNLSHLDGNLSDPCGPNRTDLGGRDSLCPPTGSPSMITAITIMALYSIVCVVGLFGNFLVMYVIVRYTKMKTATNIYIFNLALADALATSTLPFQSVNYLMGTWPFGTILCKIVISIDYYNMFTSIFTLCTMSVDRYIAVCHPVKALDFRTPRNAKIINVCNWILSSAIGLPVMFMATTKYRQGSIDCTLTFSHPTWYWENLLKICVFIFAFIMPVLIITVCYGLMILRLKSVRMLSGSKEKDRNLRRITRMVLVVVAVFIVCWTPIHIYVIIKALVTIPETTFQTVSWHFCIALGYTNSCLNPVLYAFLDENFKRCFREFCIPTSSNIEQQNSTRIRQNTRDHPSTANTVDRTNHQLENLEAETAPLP

[10] = DRUGMATRIX: Potassium Channel [KATP] radioligand binding (ligand: [3H] Glyburide); assay type: cell membranes, Membrane; settings: hit-t15; Not Active = under 50% inhibition at 10 µM
[11] = target: Protein kinase C alpha type (Homo sapiens, UniProt P17252); assay type: cell-based; settings: sf9
[12] = target: Acetylcholinesterase (Homo sapiens, UniProt P22303); experiment: DRUGMATRIX: Acetylcholinesterase enzyme inhibition (substrate: acetylthiocholine); assay type: cell-based, HEK293; settings: hek293; Not Active = under 50% inhibition at 10 µM
Chain of Acetylcholinesterase (P22303 whole entry): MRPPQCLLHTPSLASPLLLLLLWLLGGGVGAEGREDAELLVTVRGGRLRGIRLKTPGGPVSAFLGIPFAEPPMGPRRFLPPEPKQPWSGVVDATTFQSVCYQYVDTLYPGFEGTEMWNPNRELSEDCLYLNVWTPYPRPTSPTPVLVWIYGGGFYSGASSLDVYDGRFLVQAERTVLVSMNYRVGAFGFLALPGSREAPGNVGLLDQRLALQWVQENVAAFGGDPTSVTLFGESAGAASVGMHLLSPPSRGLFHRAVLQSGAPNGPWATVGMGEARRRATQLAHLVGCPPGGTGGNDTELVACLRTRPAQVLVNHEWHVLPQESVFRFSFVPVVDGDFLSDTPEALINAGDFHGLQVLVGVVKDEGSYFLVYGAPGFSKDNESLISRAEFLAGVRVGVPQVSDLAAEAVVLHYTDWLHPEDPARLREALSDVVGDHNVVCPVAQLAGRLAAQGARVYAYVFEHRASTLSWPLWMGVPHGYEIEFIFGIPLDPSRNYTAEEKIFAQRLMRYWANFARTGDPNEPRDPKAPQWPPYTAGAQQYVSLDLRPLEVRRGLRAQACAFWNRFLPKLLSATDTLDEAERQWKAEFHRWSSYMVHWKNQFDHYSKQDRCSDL

[13] = target: Adenosine receptor A2a (Homo sapiens, UniProt P29274); experiment: DRUGMATRIX: Adenosine A2A radioligand binding (ligand: […]); assay type: cell membranes, HEK293, Membrane; settings: hek293; Not Active = under 50% inhibition at 10 µM
Chain of Adenosine receptor A2a (P29274 whole entry): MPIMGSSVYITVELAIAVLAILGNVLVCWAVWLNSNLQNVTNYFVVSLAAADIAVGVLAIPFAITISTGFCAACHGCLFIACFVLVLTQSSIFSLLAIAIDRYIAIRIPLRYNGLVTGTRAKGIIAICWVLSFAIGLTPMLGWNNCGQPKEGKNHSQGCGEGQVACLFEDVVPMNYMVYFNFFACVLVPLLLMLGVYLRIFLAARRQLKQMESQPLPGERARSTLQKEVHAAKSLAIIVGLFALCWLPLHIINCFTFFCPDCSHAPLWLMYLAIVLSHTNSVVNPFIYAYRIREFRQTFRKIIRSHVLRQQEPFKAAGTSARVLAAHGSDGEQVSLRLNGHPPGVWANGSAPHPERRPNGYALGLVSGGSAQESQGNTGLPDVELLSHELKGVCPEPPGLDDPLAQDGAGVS

Chain of Beta-1 adrenergic receptor (P08588 whole entry): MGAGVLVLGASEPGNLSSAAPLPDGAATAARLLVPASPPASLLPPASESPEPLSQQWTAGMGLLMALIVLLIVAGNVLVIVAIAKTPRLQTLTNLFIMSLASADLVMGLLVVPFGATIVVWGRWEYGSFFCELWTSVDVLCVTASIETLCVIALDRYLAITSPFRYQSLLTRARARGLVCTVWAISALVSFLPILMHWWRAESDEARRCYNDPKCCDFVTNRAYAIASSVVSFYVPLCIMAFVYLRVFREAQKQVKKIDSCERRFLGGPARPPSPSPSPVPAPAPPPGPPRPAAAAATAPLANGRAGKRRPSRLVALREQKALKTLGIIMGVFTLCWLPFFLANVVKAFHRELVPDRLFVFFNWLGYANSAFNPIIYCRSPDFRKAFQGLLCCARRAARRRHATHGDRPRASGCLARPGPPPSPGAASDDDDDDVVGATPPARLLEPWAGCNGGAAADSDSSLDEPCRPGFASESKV

COC(=O)c1ccc(O)cc1 [METHYLPARABEN]
Not Active: IC50 [1] | IC50 [2] | IC50 [3] | IC50 [4] | IC50 [5] | IC50 [6] | IC50 [7] | IC50 [8] | IC50 [9] | IC50 [10] | Ki [10] | IC50 [11] | IC50 [12] | IC50 [13]

Cc1ncc([N+](=O)[O-])n1CC(C)O (configuration not stated) [SECNIDAZOLE]
Not Active: IC50 [1] | IC50 [2] | IC50 [3] | IC50 [4] | IC50 [5] | IC50 [6] | IC50 [7] | IC50 [8] | IC50 [9] | IC50 [10] | Ki [10] | IC50 [11] | IC50 [12] | IC50 [13]

CCC[C@@H]1C[C@@H](C(=O)N[C@@H]([C@H]2O[C@H](SC)[C@H](O)[C@@H](O)[C@H]2O)[C@@H](C)O)N(C)C1 [LINCOMYCIN]
Not Active: IC50 [1] | IC50 [2] | IC50 [3] | IC50 [4] | IC50 [5] | IC50 [6] | IC50 [7] | IC50 [8] | IC50 [9] | IC50 [10] | Ki [10] | IC50 [11] | IC50 [12] | IC50 [13]
